In patent US7148352B2, “Method of inhibiting neurotrophin-receptor binding” (Queen's University at Kingston, priority 1999, dated 2006):
“And” between values parts separate entries of the source, which are not always exact repeats. Equal entries are not always repeated.

Experiments:
Parameters in all cases: species or system rat
[1] = test system: p75^NTR (PC12^nnr5 cells, expressing p75^NTR only); assay: 125I-NGF receptor binding to PC12^nnr5 cells in the presence of competitor; conditions: compound 50 μM, 125I-NGF 1 nM, 2 h at 4° C.; for nnr5 % of Max, Avg: average of three values; for nnr5 % of Max (individual determinations): receptor binding as percentage of binding in absence of competitor
Method: (§1) The radio-iodination and receptor binding of NGF (Sutter et al., 1979) was performed with modifications (Ross et al., 1997) as follows: Evaluation of the ability of NCP compounds to inhibit TrkA and p75^NTR binding was determined by the binding of ^125I-NGF to PC12 cells (rat pheochromocytoma cells expressing TrkA and p75^NTR; obtained from ATCC) and PC12^nnr5 (rat pheochromocytoma cells expressing p75^NTR only; obtained from Dr. L. Greene, Columbia University, NY). The p75^NTR is in a low affinity state and a high affinity state, respectively, in these cell types (Ross et al., 1998). PC12 and PC12^nnr5 cells were grown in RPMI (Sigma) with 10% heat inactivated donor horse serum and 5% fetal calf serum. Cells were harvested by replacing the medium with calcium, magnesium-free balanced salt solution (Gey's solution) and incubating at 37° C. for 15 minutes. Cells were pelleted by centrifugation and suspended in HKR buffer (10 mM Hepes [pH 7.35] containing 125 mM NaCl, 4.8 mM KCl, 1.3 mM CaCl2, 1.2 mM MgSO4, 1.2 mM KH2PO4, 1 g/L glucose and 1 g/L BSA) at a cell concentration of 2×10^6/mL and kept at 4° C. Triplicate tubes were set up for total binding, non-specific binding and binding in the presence of candidate competitor molecule (i.e., a tube for each data point). Each tube contained ^125I-NGF (at 1 nM), 400,000 cells (for a final cell concentration of 10^6/mL) and NGF (50 nM, to define non-specific binding), as required. The tubes were incubated for 2 h at 4° C. and specific binding evaluated by measuring specifically bound DPM (Ross et al., 1997). Data were analysed and the results expressed as receptor binding observed in the presence of competitor (e.g. NCP compounds) as a percentage of receptor binding in the absence of a competitor.

[2] = biological target: T1, TrkA and p75^NTR (PC12 cells) (Mus musculus, UniProt P01139); assay: 125I-NGF receptor binding to PC12 cells in the presence of competitor; conditions: compound 50 μM; 125I-NGF 1 nM; 2 h at 4° C.; average of three values
T1 construct: PC12 cells (rat pheochromocytoma cells expressing TrkA and p75^NTR; obtained from ATCC); host or cells: PC12 rat pheochromocytoma cells (intact, in suspension)
Method: as §1

[3] = test system: T2, TrkA and p75^NTR (PC12 cells); assay: as above; conditions: compound 50 μM; 125I-NGF 1 nM; 2 h at 4° C.; receptor binding as percentage of binding in absence of competitor
T2 construct: PC12 cells (rat pheochromocytoma cells expressing TrkA and p75^NTR; obtained from ATCC); host or cells: PC12 rat pheochromocytoma cells (intact, in suspension)
Method: as §1

T2 sequence (P01139 122-241): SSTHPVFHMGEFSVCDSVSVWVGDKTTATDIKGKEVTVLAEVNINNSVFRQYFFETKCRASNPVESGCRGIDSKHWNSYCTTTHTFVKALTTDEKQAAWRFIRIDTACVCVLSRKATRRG
T1 sequence (P01139 122-241): as above

Compound: O=C(O)CN1C(=O)c2ccc(C(=O)O)cc2C1=O [Compound 100, 4-carboxy-N-(1-carboxymethyl)phthalimide]
- nnr5 % of Max, Avg [1]: = 100 % of Max
- nnr5 % of Max (individual determinations) [1]: 108 % of Max and 111 % of Max and 80 % of Max
- PC12 % of Max, Avg [2]: = 116 % of Max
- PC12 % of Max (individual determinations) [3]: 102 % of Max and 108 % of Max and 137 % of Max

Compound: O=C(O)CCN1C(=O)c2ccc(C(=O)O)cc2C1=O [Compound 101, 4-carboxy-N-(2-carboxyethyl)phthalimide]
- nnr5 % of Max, Avg [1]: = 81 % of Max
- nnr5 % of Max (individual determinations) [1]: 89 % of Max and 91 % of Max and 64 % of Max
- PC12 % of Max, Avg [2]: = 107 % of Max
- PC12 % of Max (individual determinations) [3]: 89 % of Max and 94 % of Max and 139 % of Max

Compound: O=C(O)CCCN1C(=O)c2ccc(C(=O)O)cc2C1=O [Compound 102, 4-carboxy-N-(3-carboxypropyl)phthalimide]
- nnr5 % of Max, Avg [1]: = 55 % of Max
- nnr5 % of Max (individual determinations) [1]: 55 % of Max and 50 % of Max and 61 % of Max
- PC12 % of Max, Avg [2]: = 91 % of Max
- PC12 % of Max (individual determinations) [3]: 79 % of Max and 80 % of Max and 113 % of Max

Compound: O=C(O)CCCCN1C(=O)c2ccc(C(=O)O)cc2C1=O [Compound 103, 4-carboxy-N-(4-carboxybutyl)phthalimide]
- nnr5 % of Max, Avg [1]: = 47 % of Max
- nnr5 % of Max (individual determinations) [1]: 32 % of Max and 69 % of Max and 41 % of Max
- PC12 % of Max, Avg [2]: = 78 % of Max
- PC12 % of Max (individual determinations) [3]: 69 % of Max and 65 % of Max and 100 % of Max

Compound: O=C(O)CCCCCN1C(=O)c2ccc(C(=O)O)cc2C1=O [Compound 104, 4-carboxy-N-(5-carboxypentyl)phthalimide]
- nnr5 % of Max, Avg [1]: = 37 % of Max
- nnr5 % of Max (individual determinations) [1]: 30 % of Max and 65 % of Max and 17 % of Max
- PC12 % of Max, Avg [2]: = 56 % of Max
- PC12 % of Max (individual determinations) [3]: 51 % of Max and 50 % of Max and 66 % of Max

Compound: O=C(O)c1ccc(N2C(=O)c3ccc(C(=O)O)cc3C2=O)cc1 [Compound 105, 4-carboxy-N-(p-carboxyphenyl)phthalimide]
- nnr5 % of Max, Avg [1]: = 34 % of Max
- nnr5 % of Max (individual determinations) [1]: 31 % of Max and 17 % of Max and 55 % of Max
- PC12 % of Max, Avg [2]: = 36 % of Max
- PC12 % of Max (individual determinations) [3]: 29 % of Max and 38 % of Max and 40 % of Max

Compound: O=C(O)c1cccc(N2C(=O)c3ccc(C(=O)O)cc3C2=O)c1 [Compound 106, 4-carboxy-N-(m-carboxyphenyl)phthalimide]
- nnr5 % of Max, Avg [1]: = 26 % of Max
- nnr5 % of Max (individual determinations) [1]: 37 % of Max and 16 % of Max and 24 % of Max
- PC12 % of Max, Avg [2]: = 44 % of Max
- PC12 % of Max (individual determinations) [3]: 40 % of Max (2×) and 52 % of Max

Compound: O=C(O)c1ccc2c(c1)C(=O)N(c1ccccc1C(=O)O)C2=O [Compound 107, 4-carboxy-N-(o-carboxyphenyl)phthalimide]
- nnr5 % of Max, Avg [1]: = 85 % of Max
- nnr5 % of Max (individual determinations) [1]: 58 % of Max and 113 % of Max and 83 % of Max
- PC12 % of Max, Avg [2]: = 100 % of Max
- PC12 % of Max (individual determinations) [3]: 111 % of Max and 86 % of Max and 103 % of Max

Compound: O=C(O)c1ccc(CN2C(=O)c3ccc(C(=O)O)cc3C2=O)cc1 [Compound 108, 4-carboxy-N-(p-carboxyphenylmethyl)phthalimide]
- nnr5 % of Max, Avg [1]: = 93 % of Max
- nnr5 % of Max (individual determinations) [1]: 135 % of Max and 77 % of Max and 66 % of Max
- PC12 % of Max, Avg [2]: = 73 % of Max
- PC12 % of Max (individual determinations) [3]: 90 % of Max and 55 % of Max and 75 % of Max

Compound: O=C(O)c1ccc2c(c1)C(=O)N(c1ccccc1)C2=O [Compound 109, 4-carboxy-N-phenylphthalimide]
- nnr5 % of Max, Avg [1]: = 73 % of Max
- nnr5 % of Max (individual determinations) [1]: 70 % of Max and 74 % of Max and 75 % of Max
- PC12 % of Max, Avg [2]: = 56 % of Max
- PC12 % of Max (individual determinations) [3]: 50 % of Max and 60 % of Max and 57 % of Max

Compound: O=C(O)CN1C(=O)c2cccc([N+](=O)[O-])c2C1=O [Compound 120, 3-nitro-N-(1-carboxymethyl)phthalimide]
- nnr5 % of Max, Avg [1]: = 183 % of Max
- nnr5 % of Max (individual determinations) [1]: 218 % of Max and 200 % of Max and 130 % of Max
- PC12 % of Max, Avg [2]: = 109 % of Max
- PC12 % of Max (individual determinations) [3]: 133 % of Max and 92 % of Max and 103 % of Max

Compound: O=C(O)CCN1C(=O)c2cccc([N+](=O)[O-])c2C1=O [Compound 121, 3-nitro-N-(2-carboxyethyl)phthalimide]
- nnr5 % of Max, Avg [1]: = 165 % of Max
- nnr5 % of Max (individual determinations) [1]: 204 % of Max and 188 % of Max and 103 % of Max
- PC12 % of Max, Avg [2]: = 103 % of Max
- PC12 % of Max (individual determinations) [3]: 121 % of Max and 92 % of Max and 103 % of Max

Compound: O=C(O)CCCN1C(=O)c2cccc([N+](=O)[O-])c2C1=O [Compound 122, 3-nitro-N-(3-carboxypropyl)phthalimide]
- nnr5 % of Max, Avg [1]: = 163 % of Max
- nnr5 % of Max (individual determinations) [1]: 232 % of Max and 152 % of Max and 104 % of Max
- PC12 % of Max, Avg [2]: = 97 % of Max
- PC12 % of Max (individual determinations) [3]: 106 % of Max and 88 % of Max and 98 % of Max

Compound: O=C(O)CCCCN1C(=O)c2cccc([N+](=O)[O-])c2C1=O [Compound 123, 3-nitro-N-(4-carboxybutyl)phthalimide]
- nnr5 % of Max, Avg [1]: = 150 % of Max
- nnr5 % of Max (individual determinations) [1]: 172 % of Max and 161 % of Max and 117 % of Max
- PC12 % of Max, Avg [2]: = 97 % of Max
- PC12 % of Max (individual determinations) [3]: 118 % of Max and 75 % of Max and 98 % of Max

Compound: O=C(O)CCCCCN1C(=O)c2cccc([N+](=O)[O-])c2C1=O [Compound 124, 3-nitro-N-(5-carboxypentyl)phthalimide]
- nnr5 % of Max, Avg [1]: = 153 % of Max
- nnr5 % of Max (individual determinations) [1]: 166 % of Max and 182 % of Max and 110 % of Max
- PC12 % of Max, Avg [2]: = 92 % of Max
- PC12 % of Max (individual determinations) [3]: 117 % of Max and 71 % of Max and 89 % of Max

Compound: O=C(O)c1ccc(N2C(=O)c3cccc([N+](=O)[O-])c3C2=O)cc1 [Compound 125, 3-nitro-N-(p-carboxyphenyl)phthalimide]
- nnr5 % of Max, Avg [1]: = 49 % of Max
- nnr5 % of Max (individual determinations) [1]: 47 % of Max (2×) and 54 % of Max
- PC12 % of Max, Avg [2]: = 90 % of Max
- PC12 % of Max (individual determinations) [3]: 83 % of Max and 87 % of Max and 99 % of Max

Compound: O=C(O)c1cccc(N2C(=O)c3cccc([N+](=O)[O-])c3C2=O)c1 [Compound 126, 3-nitro-N-(m-carboxyphenyl)phthalimide]
- nnr5 % of Max, Avg [1]: = 52 % of Max
- nnr5 % of Max (individual determinations) [1]: 34 % of Max and 54 % of Max and 69 % of Max
- PC12 % of Max, Avg [2]: = 77 % of Max
- PC12 % of Max (individual determinations) [3]: 90 % of Max and 69 % of Max and 72 % of Max

Compound: O=C(O)c1ccccc1N1C(=O)c2cccc([N+](=O)[O-])c2C1=O [Compound 127, 3-nitro-N-(o-carboxyphenyl)phthalimide]
- nnr5 % of Max, Avg [1]: = 112 % of Max
- nnr5 % of Max (individual determinations) [1]: 136 % of Max and 129 % of Max and 71 % of Max
- PC12 % of Max, Avg [2]: = 118 % of Max
- PC12 % of Max (individual determinations) [3]: 140 % of Max and 101 % of Max and 114 % of Max

Compound: O=C(O)CN1C(=O)c2ccc([N+](=O)[O-])cc2C1=O [Compound 140, 4-nitro-N-(1-carboxymethyl)phthalimide]
- nnr5 % of Max, Avg [1]: = 99 % of Max
- nnr5 % of Max (individual determinations) [1]: 89 % of Max and 108 % of Max and 100 % of Max
- PC12 % of Max, Avg [2]: = 111 % of Max
- PC12 % of Max (individual determinations) [3]: 100 % of Max and 126 % of Max and 108 % of Max
